Laboratory results as given in patent US20110281807A1, “PLANT DISEASE CONTROL AGENT COMPRISING D-TAGATOSE AS ACTIVE INGREDIENT, AND PLANT DISEASE CONTROL METHOD” (NATIONAL UNIVERSITY CORPORATION KAGAWA UNIVERSITY, priority 2008, published 2011).
Values joined by “and” are separate entries in the source; they are usually repeats but may differ in a detail not shown here. Identical values can stand only once. Like-named read-outs stand apart in the source and are kept apart here.

Columns and labels:
[1] = tested on: Pseudoperonospora cubensis; details: alone
Method: Test plants (cucumber, variety: Sagami hanpaku) were seeded and grown until the one true leaf stage. D-tagatose alone was diluted to 5%, 1%, 0.5% and 0.1%, and the combination of D-tagatose and other saccharide were diluted to be 0.5% and 0.5% solution respectively with distilled water, and then 10 ml of the dilution was sprayed on the test plant. Three days after spraying of the solution, a sporangium suspension of Pseudoperonospora cubensis containing 1×10^3/ml were inoculated by spraying on test plants and then put them for 16 hours in an inoculation chamber (20° C. to 23° C.) to promote disease. Seven days after inoculation the disease severity of the test plants was observed and the effectiveness of test sample was judged. Tests were carried out using two plants for each test set and the disease severity of the test plants was judged in accordance with the following criteria. The preventive value was calculated from the degree of disease severity as in example 1.
Synergistic effect was determined by the Colby's equation below.
X is the observed effect, in percentage, of the first active ingredient and, and Y is the observed effect, in percentage, of the second active ingredient. E is the effect, in percentage, of the mixture expected from additive contribution of the individual components.

[2] = tested on: Pseudoperonospora cubensis; assay: cucumber downy mildew, pot test: curative effect
Method: Test plants (cucumber, variety: Sagami hanpaku) were seeded and grown until the one true leaf stage. And then a sporangium suspension of Pseudoperonospora cubensis containing 1×10^3/ml were sprayed on the back side of the leaves of test plants for inoculation and then the plants were put for 16 hours in an inoculation chamber (20° C. to 23° C.) to promote disease. For a curative test, the inoculated plants as described above were used.
D-Tagatose was diluted to 5%, 1% and 0.5% with distilled water and then 10 ml of the dilution was sprayed on the test plant. Seven days after the spraying of D-tagatose the disease severity of the test plants was observed and the effectiveness of test sample was judged. Tests were carried out using two plants for each test set and the disease severity of the test plants was judged. The control value was calculated from the degree of disease severity as in Example 1.

Phytophthora infestans [3] = type: in vivo; details: inoculated 3 days after spraying
Peronospora parasitica = assay: cabbage downy mildew, pot test: preventive effect; details: inoculated 3 days after spraying
Method: Test plants (cabbage, variety: Shikidori) were seeded and grown until 4 leaves stage. […] Three days after spraying, a suspension containing condia of cucumber downy mildew (Peronospora parasitica) was inoculated by spraying on test plants. Seven days after inoculation the disease severity of the test plants was observed and the effectiveness of test sample was judged. Tests were carried out using two plants for each test set and the disease severity of test plants was judged in accordance with the following criteria. The preventive value was calculated from the degree of disease severity as in Example 1.

Pythium aphanidermatum [4] = details: 10 ml soil drench, from germination rate after 2 weeks
Method: Five seeds of test plants (cucumber, variety: Sagami hanpaku) were sowed in a pot (5×5 cm), which contains infested soil with Pythium aphanidermatum (mycelium 100 g/1 L soil) and the seeds were covered with the soil. […] After 2 weeks, the disease severity of the test plants was observed and the effectiveness of test sample was judged. Tests were carried out in triplicate using 5 plants for each test set and the preventive value was calculated from the germination rate.

Sphaerotheca fuligine = assay: cucumber powdery mildew, pot test: preventive effect; details: inoculated 3 days after spraying
Method: Test plants (cucumber, variety: Sagami-hanpaku) were seeded and grown until the one true leaf stage. D-tagatose was diluted to 5% and 1% with distilled water and then 10 ml of the dilution was sprayed on the test plant. Three days after spraying, a condia suspension of Sphaerotheca fuligine was inoculated by spraying on test plants. Seven days after inoculation the disease severity of the test plants was observed and the effectiveness of test sample was judged. Tests were carried out using two plants for each test set and the disease severity of the test plants was judged in accordance with the following criteria.

Pythium glaminicola = details: 10 ml soil drench, from percentage of onset area after 2 weeks
Method: Four germinated rice seeds (variety: Koshihikari) were sowed in a pot (5×5 cm), which contains infected soil with Pythium glaminicola (mycelium 100 g/1 L soil). The pot was drenched with 10 ml of D-tagatose dilution and the seeds were covered with soil. After 2 weeks, the disease severity of the test plants per rice seedling in 25 cm^2 was observed and the effectiveness of test sample was judged. Tests were carried out in duplicate and the preventive value was calculated from percentage of onset area.

[5] = tested on: Pseudoperonospora cubensis; details: 5 ml soil drench, inoculated 5 days after drenching
Method: Test plants (cucumber, variety: Sagami hanpaku) were seeded and grown until the one true leaf stage. D-Tagatose was diluted to 5% and 1% with distilled water and then 5 ml of the dilution was drenched into the soil of the pot. Five days after drenching, a sporangium suspension of Pseudoperonospora cubensis containing 1×10^3/ml were noculated by spraying on the test plants and then put them for 16 hours in an inoculation chamber (20° C. to 23° C.) to promote disease. Seven days after inoculation the disease severity of the test plants was observed and the effectiveness of test sample was judged. Tests were carried out using two plants for each test set and the disease severity of the test plants was judged. The preventive value was calculated from the degree of disease severity as in Example 1.

[6] = tested on: Pseudoperonospora cubensis; assay: cucumber downy mildew, pot test: preventive effect; details: for Preventive value (3 DAS): inoculated 3 days after spraying; for Preventive value (5 DAS): inoculated 5 days after spraying
Method: Test plants (cucumber, variety: Sagami hanpaku) were seeded and grown until the one true leaf stage. D-Tagatose was diluted to 5%, 1% and 0.5% with distilled water and then 10 ml of the dilution was sprayed on the test plant. Three or five days after spraying, a sporangium suspension of Pseudoperonospora cubensis containing 1×10^3/ml were inoculated by spraying on test plants and then the plants were put for 16 hours in an incubation chamber (20° C. to 23° C.) to promote disease. Seven days after inoculation the disease severity of the test plants was observed and the effectiveness of test sample was judged. Tests were carried out using two plants for each test set and the disease severity of the test plants was judged in accordance with the following criteria. The preventive value was calculated from the degree of the disease severity.
(§1) 0 (No lesion) 1 (Lesion area was not more than 40%) 2 ((Lesion area was 40%-80%) 3 (Lesion area was not less than 80%)
Preventive value=100{1−(n/N)} N=disease severity of untreated leaf, n=disease severity of the tested leaf

Plasmopara viticola = details: Plasmopara viticola, 168 h, read-out: Preventive value
Method: Test plants (variety: Neo Muscat) were seeded and grown until three leaves. D-Tagatose was diluted to 5000 ppm and the fungicides were diluted to the concentrations listed in table 16, with distilled water, and 10 ml of the dilution was sprayed on the plants. Three days after the spraying of the dilution, the plants were infected by spraying a sporangium suspension of Plasmopara viticola containing 1×10^3/ml and then put for 16 hours in an inoculation chamber (20° C. to 23° C.) to promote disease. The disease severity of the test plants was observed 7 days after inoculation, and the effectiveness of test sample was judged.

Puccinia recondita [7] = details: Puccinia recondita, in Triticum aestivum, 168 h, read-out: Preventive value
Method: Test plants (variety: Nourin 61 gou) were sowed and grown until two leaves stage.
D-Tagatose and fungicide were diluted to 10000 ppm and the concentration listed in table 19, respectively, with distilled water, and 10 ml of the dilution was sprayed thoroughly on the plants. Three days after the spraying of the dilution, the plants were inoculated with Puccinia recondita containing 1×10^3/ml and then put for 16 hours in an inoculation chamber (20° C. to 23° C.) to promote disease. Seven days after inoculation the disease severity of the test plants was observed and the effectiveness of test sample was judged.

[8] = tested on: Pseudoperonospora cubensis; details: Pseudoperonospora cubensis, in Cucumis sativus, 168 h, read-out: Preventive value
Method: Test plants (cucumber, variety: Sagami hanpaku) were seeded and grown until the one true leaf stage. D-Tagatose was diluted to 5000 ppm and the fungicides were diluted to the concentrations listed in table 14, with distilled water. And then 10 ml of the dilution was sprayed on the test plant. Three days after spraying of the solution, a sporangium suspension of Pseudoperonospora cubensis containing 1×10^3/ml were inoculated by spraying on test plants and then put for 16 hours in an inoculation chamber (20° C. to 23° C.) to promote disease. Seven days after inoculation the disease severity of the test plants was observed and the effectiveness of the test sample was judged. Tests were carried out using two plants for each test set and the disease severity of the test plants was judged in accordance with the following criteria. The preventive value was calculated from the degree of disease severity.
as §1
Preventive value=100{1−(n/N)} N=disease severity of untreated leaf, n=disease severity of the test leaf Synergistic effect was determined by Colby's equation.

Pythium aphanidermatum [9] = assay: cucumber damping-off, pot test: soil drench of D-tagatose combined with fungicides; details: Pythium aphanidermatum, in Cucumis sativus, soil, 336 h, read-out: Preventive value
[10] = tested on: Erysiphe graminis f.sp. hordei; details: Blumeria graminis, in Hordeum vulgare, 168 h, read-out: Preventive value
Method: Test plants (barley, variety: Akashinriki) were seeded and grown until the one leaf stage. D-tagatose and fungicide were diluted to 5000 ppm and the concentrations listed in table 21, respectively, with distilled water and 10 ml of the dilution was sprayed thoroughly on the plants. Three days after spraying, a condia suspension of Erysiphe graminis f.sp. hordei was inoculated by spraying on test plants. 7 days after inoculation the disease severity of the test plants was observed and the effectiveness of test sample was judged.

Botrytis cinerea = details: Botrytis cinerea, in Solanum lycopersicum, 168 h, read-out: Preventive value
Method: Test plants (tomato, variety: Ogata-fukujyu) were seeded and grown until the three leaf stage. D-Tagatose and fungicide were diluted to 10000 ppm and the concentrations liste in table 23, respectively, with distilled water and 10 ml of the dilution was sprayed on the plants. Three days after spraying the solution, condia suspension of Botrytis cinerea were inoculated by spraying on test plants and then put for 16 hours in an inoculation chamber (20° C. to 23° C.) to promote disease. Seven days after inoculation, the disease severity of the test plants was observed and the effectiveness of test sample was judged.

Sphaerotheca fuliginea = details: Podosphaera fuliginea, in Cucumis sativus, 168 h, read-out: Preventive value
Method: Test plants (cucumber, variety: Sagami hanpaku) were seeded and grown until the one true leaf stage. D-Tagatose and fungicide were diluted to 5000 ppm and the concentrations listed in table 20, respectively, with distilled water and 10 ml of the dilution was sprayed thoroughly on the plants. Three days after spraying, a condia suspension containing of Sphaerotheca fuliginea were inoculated by spraying on test plants.
Seven days after inoculation the disease severity of the test plants was observed and the effectiveness of test sample was judged.

[11] = tested on: Pseudoperonospora cubensis; details: Pseudoperonospora cubensis, in Cucumis sativus, 168 h, read-out: Preventive value; remark: listed apart in the source
Method: Test plants (cucumber, variety: Sagami hanpaku) were seeded and grown until the one true leaf stage. And then, a sporangium suspension of Pseudoperonospora cubensis containing 1×10^3/ml were spraying for inoculation on the back side of the leaves of test plants and then put for 16 hours in an inoculation chamber (20° C. to 23° C.) to promote disease. For a curative test, the inoculated plants as described above were used.
D-Tagatose was diluted to 5000 ppm and the fungicides were diluted to the concentrations listed in table 15, with distilled water, and 10 ml of the dilution was sprayed. Seven days after inoculation the disease severity of the test plants was observed and the effectiveness of test sample was judged.

Phytophthora infestans [12] = assay: whole plant or invertebrate; type: in vivo; details: Phytophthora infestans, in Solanum lycopersicum, 168 h, read-out: Preventive value
Pyricularia oryze = assay: whole plant or invertebrate; type: in vivo; details: Pyricularia, in Oryza sativa, 168 h, read-out: Preventive value
Puccinia recondita [13] = assay: wheat brown rust, field trial; details: 200 ppm
Method: Test plants (variety: Nourin 61 gou) were sowed and grown until heading stage. D-Tagatose was diluted to 5% with distilled water and sprayed thoroughly on the plants two times every 8 days. Three days after the first spraying of the dilution, wheat leaves inoculated with wheat fusarium blight (Puccinia recondita) were kept in the test plants. The disease severity of the test plants was observed 21 days after last spraying and the effectiveness of test sample was judged. Tests were carried out in duplicate. One plot of each test was 5 m^2. The disease severity of the test plants was judged in accordance with the following criteria. The preventive value was calculated from the degree of disease severity.

O=C(CO)[C@@H](O)[C@H](O)[C@H](O)CO [D-Fuctose, D-fructose] was tested, and the Preventive value ([1]; 5000 ppm) was 0.0.
In the case of O=C(CO)[C@H](O)[C@@H](O)[C@H](O)CO [D-Sorbose, D-sorbose], the Preventive value ([1]; 5000 ppm) is reported as 0.0.
With O=C[C@H](O)[C@@H](O)[C@H](O)[C@H](O)CO [D-Glucose] the “Preventive value (control value)” value ([2]; 5000 ppm sprayed after inoculation (curative)) was 0.0, the “Preventive value (control value)” value ([2]; 10000 ppm sprayed after inoculation (curative)) was 0.0 and the “Preventive value (control value)” value ([2]; 50000 ppm sprayed after inoculation (curative)) was 0.0. It also gave a Preventive value (Phytophthora infestans [3]; 50000 ppm spray) of 0.0, a Preventive value (Phytophthora infestans [3]; 100000 ppm spray) of 0.0 and a Preventive value (Peronospora parasitica; 10000 ppm spray) of 0.0. The Preventive value (Peronospora parasitica; 50000 ppm spray) was 0.0, the Preventive value (Pythium aphanidermatum [4]; 10000 ppm) was 0.0 and the Preventive value (Pythium aphanidermatum [4]; 50000 ppm) was 0.0. It also gave a Preventive value (Sphaerotheca fuligine; 10000 ppm spray) of 0.0, a Preventive value (Sphaerotheca fuligine; 50000 ppm spray) of 0.0 and a Preventive value (Pythium glaminicola; 10000 ppm) of 3.0. The Preventive value (Pythium glaminicola; 50000 ppm) was 4.5, the Preventive value ([5]; 10000 ppm) was 0.0 and the Preventive value ([5]; 50000 ppm) was 0.0. The “Preventive value (3 DAS)” value ([6]; 5000 ppm spray) was 0.0, the “Preventive value (5 DAS)” value ([6]; 5000 ppm spray) was 0.0 and the “Preventive value (3 DAS)” value ([6]; 10000 ppm spray) was 0.0. The “Preventive value (5 DAS)” value ([6]; 10000 ppm spray) was 0.0, the “Preventive value (3 DAS)” value ([6]; 50000 ppm spray) was 0.0 and the “Preventive value (5 DAS)” value ([6]; 50000 ppm spray) was 0.0.
Compound O=C[C@@H](O)[C@@H](O)[C@H](O)[C@H](O)CO [D-Mannose, D-mannose] has a Preventive value ([1]; 5000 ppm) of 0.0.
O=C(CO)[C@H](O)[C@H](O)[C@H](O)CO [D-Psicose, D-psicose] was tested, and the Preventive value ([1]; 5000 ppm) was 0.0.
C=CCOC1=NS(=O)(=O)c2ccccc21 [Probenazole, probenazole] was tested, and the “Preventive value (control value)” value ([2]; 100 ppm sprayed after inoculation (curative)) was 18.3, the Preventive value ([1]; 100 ppm) was 66.7 and the “Preventive value (3 DAS)” value ([6]; 100 ppm spray) was 33.3. For the same compound, the “Preventive value (5 DAS)” value ([6]; 100 ppm spray) was 95.0.
COCC(=O)N(c1c(C)cccc1C)C(C)C(=O)OC (centres unmarked) [Metalaxyl, metalaxyl] was tested, and the “Preventive value (control value)” value ([2]; 300 ppm sprayed after inoculation (curative)) was 100.0, the Preventive value (Phytophthora infestans [3]; 300 ppm spray) was 93.3 and the pest or weed control at 2 ppm (Plasmopara viticola) was 50%. For the same compound, the Preventive value (Peronospora parasitica; 600 ppm spray) was 98.4, the Preventive value (Pythium aphanidermatum [4]; 300 ppm) was 95.0 and the pest or weed control at 250 ppm (Puccinia recondita [7]) was 0%. For the same compound, the pest or weed control at 2 ppm [8] was 67%, the pest or weed control at 5 ppm (Pythium aphanidermatum [9]) was 83% and the Preventive value ([1]; 300 ppm) was 100.0. It also gave a pest or weed control at 250 ppm [10] of 0%, a Preventive value ([5]; 300 ppm) of 100.0 and a pest or weed control at 250 ppm (Botrytis cinerea) of 0%. For the same compound, the pest or weed control at 250 ppm (Sphaerotheca fuliginea) was 0%, the “Preventive value (3 DAS)” value ([6]; 300 ppm spray) was 100.0 and the “Preventive value (5 DAS)” value ([6]; 300 ppm spray) was 100.0. For the same compound, the pest or weed control at 2 ppm [11] was 33% and the pest or weed control at 2 ppm (Phytophthora infestans [12]) was 67%.
In the case of CSC(=O)c1cccc2nnsc12 [Acibenzolar-S-Methyl, acibenzolar-S-methyl], the “Preventive value (control value)” value ([2]; 50 ppm sprayed after inoculation (curative)) is reported as 25.0, the Preventive value ([1]; 50 ppm) is reported as 95.0 and the “Preventive value (3 DAS)” value ([6]; 50 ppm spray) is reported as 91.7. The “Preventive value (5 DAS)” value ([6]; 50 ppm spray) was 99.2.
For Cc1cc(O)no1 [hymexazol], the pest or weed control at 250 ppm (Plasmopara viticola) was 0%, the pest or weed control at 250 ppm (Puccinia recondita [7]) was 0% and the pest or weed control at 250 ppm [8] was 0%. For the same compound, the pest or weed control at 50 ppm (Pythium aphanidermatum [9]) was 67%, the pest or weed control at 250 ppm [10] was 0% and the pest or weed control at 250 ppm (Pyricularia oryze) was 33%. For the same compound, the pest or weed control at 250 ppm (Botrytis cinerea) was 0%, the pest or weed control at 250 ppm (Sphaerotheca fuliginea) was 0% and the pest or weed control at 250 ppm [11] was 0%. For the same compound, the pest or weed control at 250 ppm (Phytophthora infestans [12]) was 0%.
With CC(C)(C)C(O)(CCc1ccc(Cl)cc1)Cn1cncn1 (centres unmarked) [Tebuconazole, tebuconazole] the “D.D.S (Degree of disease severity), Av” value (Puccinia recondita [13]; average of plots) was 0.2, the “Leaves number(n) of disease severity 0” value (Puccinia recondita [13]; per plot (1, 2), 100 leaves) was 98 and 100 and the “Leaves number(n) of disease severity 2” value (Puccinia recondita [13]; per plot (1, 2), 100 leaves) was 0. The “Leaves number(n) of disease severity 3” value (Puccinia recondita [13]; per plot (1, 2), 100 leaves) was 0, the “Leaves number(n) of disease severity 4” value (Puccinia recondita [13]; per plot (1, 2), 100 leaves) was 0 and the “Leaves number(n) of disease severity 5” value (Puccinia recondita [13]; per plot (1, 2), 100 leaves) was 0. For the same compound, the “Leaves number(n) of disease severity 6” value (Puccinia recondita [13]; per plot (1, 2), 100 leaves) was 0, the “P.V. (Preventive value), Av” value (Puccinia recondita [13]; sprayed two times every 8 days, rated 21 days after last spraying) was 99.8 and the pest or weed control at 0.4 ppm (Puccinia recondita [7]) was 50%. The pest or weed control at 0.4 ppm [10] was 67%, the pest or weed control at 10 ppm (Botrytis cinerea) was 33% and the pest or weed control at 0.4 ppm (Sphaerotheca fuliginea) was 73%.
With C[Si](C)(C)CC(O)(Cn1cncn1)c1ccc(F)cc1 (centres unmarked) [simeconazole] the pest or weed control at 250 ppm (Plasmopara viticola) was 0%, the pest or weed control at 10 ppm (Puccinia recondita [7]) was 67% and the pest or weed control at 250 ppm [8] was 0%. It also gave a pest or weed control at 250 ppm (Pythium aphanidermatum [9]) of 0%, a pest or weed control at 0.4 ppm [10] of 50% and a pest or weed control at 250 ppm (Pyricularia oryze) of 73%. The pest or weed control at 50 ppm (Botrytis cinerea) was 33%, the pest or weed control at 0.4 ppm (Sphaerotheca fuliginea) was 83% and the pest or weed control at 250 ppm [11] was 0%. It also gave a pest or weed control at 250 ppm (Phytophthora infestans [12]) of 0%.
In the case of N#Cc1c[nH]cc1-c1cccc2c1OC(F)(F)O2 [fludioxonil], the pest or weed control at 10 ppm (Plasmopara viticola) is reported as 33%, the pest or weed control at 50 ppm (Puccinia recondita [7]) is reported as 17% and the pest or weed control at 10 ppm [8] is reported as 57%. For the same compound, the pest or weed control at 250 ppm (Pythium aphanidermatum [9]) was 0%, the pest or weed control at 250 ppm [10] was 73% and the pest or weed control at 50 ppm (Pyricularia oryze) was 83%. For the same compound, the pest or weed control at 2 ppm (Botrytis cinerea) was 67%, the pest or weed control at 250 ppm (Sphaerotheca fuliginea) was 73% and the pest or weed control at 10 ppm [11] was 0%. It also gave a pest or weed control at 10 ppm (Phytophthora infestans [12]) of 0%.
